# Test results taken from patent US7317038B2, “Nerve regeneration promoters containing semaphorin inhibitor as the active ingredient” (Dainippon Sumitomo Pharma Co., Ltd., priority 2000, dated 2008).
# “Also recorded” adds a separate entry of the source.
# Legend:
# [1] = molecular target: T1, mouse semaphorin 3A (Sema3A) (Mus musculus, UniProt O08665); experiment: Suppression of growth cone collapse activity of Sema3A (chick embryo dorsal root ganglions); assay type: cell-based
# T1 sequence (O08665 21-772): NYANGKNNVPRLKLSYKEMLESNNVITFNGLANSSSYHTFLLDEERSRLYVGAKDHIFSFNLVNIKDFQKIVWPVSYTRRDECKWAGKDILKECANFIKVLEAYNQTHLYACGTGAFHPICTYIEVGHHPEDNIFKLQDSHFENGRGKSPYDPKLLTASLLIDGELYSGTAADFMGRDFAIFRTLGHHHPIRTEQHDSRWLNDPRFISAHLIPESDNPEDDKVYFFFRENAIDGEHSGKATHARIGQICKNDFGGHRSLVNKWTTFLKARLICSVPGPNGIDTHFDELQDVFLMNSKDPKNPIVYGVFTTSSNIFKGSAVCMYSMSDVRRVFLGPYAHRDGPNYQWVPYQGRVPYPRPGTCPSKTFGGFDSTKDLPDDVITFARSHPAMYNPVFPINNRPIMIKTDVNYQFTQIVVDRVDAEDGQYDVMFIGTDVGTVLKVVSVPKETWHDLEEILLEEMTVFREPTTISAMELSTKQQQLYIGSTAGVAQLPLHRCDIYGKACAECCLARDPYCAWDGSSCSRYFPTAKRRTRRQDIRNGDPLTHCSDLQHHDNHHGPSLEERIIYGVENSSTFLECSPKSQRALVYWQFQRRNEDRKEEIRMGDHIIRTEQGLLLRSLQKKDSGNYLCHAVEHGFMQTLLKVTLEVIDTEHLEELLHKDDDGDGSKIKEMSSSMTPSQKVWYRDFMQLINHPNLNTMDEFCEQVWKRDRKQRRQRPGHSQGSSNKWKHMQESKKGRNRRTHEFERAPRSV
# Description: A 96-well plate (Sumitomo Bakelite Co., ltd. ) pre-coated with polylysine was further coated with laminine (20 μg/ml of laminine, for 1 hour at room temperature). Each well was added with 100 μl of medium (F12 medium containing 10% bovine fetal serum, 20 ng/ml of NGF, 100 units/ml of penicillin and 100 μg/ml of streptomycin) which media were then inoculated with dorsal root nerve ganglions excised from E7 (Embryonic day 7) chick embryo and were cultured for 16 to 20 hours under 5% CO2 and at 37° C. Subsequently, the object compounds were added to media at various concentrations and 2 units/ml of mouse semaphorin 3A (Sema3A) was added after cultivating for 1 hour. The cultures were further incubated for another 1 hour. Glutaraldehyde was quickly added therein after said 1 hour to make the final concentration 1%. The cultures were then left for 15 minutes at room temperature so that the tissue sections were fixed, and collapse rates of the growth cones were microscopically observed. A well with no addition of Sema3A was made the control.
# The longitudinal and lateral axes in the figures represent the collapse rate of growth cones and the concentration of compounds, respectively. ●▪▴ show the results when Sema3A was added after the addition of the compounds and ◯[…]Δ show those when Sema3A was not added. Further, IC50 (μg/ml) of the inhibitors were determined by the method comprising: calculating the collapse rate of growth cone (A) % of the negative controls (neither compounds nor Sema3a was added); subsequently calculate the collapse rate of growth cone (B) % of the positive controls (compounds were not added but Sema3a was added); and the concentration was chosen for each compound from the chart where the collapse rate of growth cone met (A+B)/2(%), which was made IC50 level. The followings are the results.
# [2] = test system: COS7 cells; experiment: Effect on cell proliferation (MTT); assay type: cell-based; details: two days
# Description: COS7 cells were seeded onto a 96-well plate (medium 100 μl/well) at 10000 cells per well. At the same time, SPF-3059-1 of various concentrations was added and the cells were cultivated for two days in the presence of 5% CO2 at 37° C. Each well was then added with 10 μl of MTT solution at 5 mg/ml and cultured for another one hour. Subsequently, the culture supernatant was removed and formazan (an MTT derivative produced in viable cells) accumulated in the cells was dissolved by the addition of 50 μl DMSO and then the absorbance at 570 nm was measured to determine the proliferation of COS7 cells. […] The longitudinal and lateral axes in the figure show cell proliferation and the SPF-3059-1 concentration, respectively. Besides, the standard deviation (n=4) was added to each column.
# The same effect on cell proliferation as in Example 9 was examined for the compounds, SPF-3059-1, SPF-3059-2 and SPF-3059-5. The wells with these compounds were served as samples, the wells with PBS were served as control, and the wells for which the experiment was carried out without adding the cells was served as blank. IC50 (μg/ml), the inhibitory rate for cell proliferation, was determined, which is calculated by the equation shown below. The inhibitory rate for cell proliferation (%)=(1−(absorbance of a sample well−absorbance of the blank well)/(absorbance of the control well−absorbance of the blank well))×100
smiles,measurement,setting,value
CC(=O)c1c(C)c(C(=O)C2COc3cc(O)c(O)c(C(=O)O)c3C2=O)cc2c(=O)c3c(C(=O)O)c(O)c(O)cc3oc12 (stereo not shown) [SPF-3059-1],IC50,"[1]; E7 chick embryo dorsal root ganglions, 2 units/ml Sema3A added 1 hour after compound, concentration where collapse rate = (A+B)/2, read-out: IC50 of inhibition of the growth cone collapse activity of Sema3A (converted)",< 0.173 µM
same,inhibition of growth cone collapse activity of Sema3A (in words),[1]; chick embryo dorsal root ganglions,inhibit the growth cone collapse activities of Sema3A in a concentration-dependent manner; also recorded: potently inhibit semaphorin
same,IC50,"[2]; Chlorocebus aethiops, COS-7, 48 h, read-out: IC50, inhibitory rate for cell proliferation",> 300 mg/L
same,suppressing activity for cell proliferation (in words),[2],no suppressing activity
